Patent US7193079B1 (Board of Trustees of Michigan State University, priority 2003, dated 2007)
Values belong to the compound of their own block, whether it stands above or below them.

Key:
IL-2 production = assay: Inhibition of IL-2 production measured by competitive EIA in PMA/PHA-activated Jurkat T cells; type: cell-based, human; conditions: for IC50: PMA/PHA-activated Jurkat T cells, EIA, means of two experiments, standard deviation in parentheses
Description: (§1) Exposure of human Jurkat leukemia T-cells to phorbol myristate acetate (PMA/PHA) and THP-1 cells to lipopolysaccharide (LPS), activates NF-κB mediated gene transcription of several pro-inflammatory cytokines, including IL-2, IL-6, IL-8 and TNF-α (Baldwin, Ann. Rev. Immunol. 14: 649–683 (1996); Grilli et al., Int. Rev. Cytol. 143: 1–62 (1993)). […] The inhibition of IL-2 was evaluated in Jurkat cells after PMA/PHA activation (Mahon and O'Neill, J. Biol. Chem. 270: 28557–28564 (1995); Lindgren et al., Molec. Immunol. 38V 267–277 (2001)). The inhibition of TNF-α was evaluated in THP-1 cells after LPS activation (Aikawa et al., Inflamm. Res. 51: 188–194 (2002)). […] After 24 hours, the cell free supernatant fractions were collected and subjected to EIA for the quantification of total IL-2 production.
To each well of a flat bottomed 96 well culture plate 0.2 mL 1×10^6 Jurkat E6-1 cells/mL were added. Each sample was then treated in duplicate with the compounds in DMSO at either 10 μM, 1 μM, 0.1 μM or 10 ηM and allowed to incubate for thirty minutes at 37° C., 5% CO2. Cell free supernatant fractions were collected from stimulated cultures incubated for 24 hr at 37° C., 5% CO2. Cultures were stimulated with phytohemagglutinin (PHA, Sigma-Aldrich, St. Louis, Mo.) at 1 μg/mL; and phorbol myristate acetate (PMA, Sigma-Aldrich, St. Louis, Mo.) at 50 ng/mL. The concentration of IL-2 in each sample was then measured using a competitive enzyme immunoassay (Neogen Corporation, Lansing, Mich.) according to the manufacturer's protocol. Known IL-2 concentrations were plotted and fit a 4 parameter logistic curve. Unknown concentrations were then extrapolated from the standard curve.

TNF-α production = assay: Inhibition of TNF-α production measured by competitive EIA in LPS stimulated THP-1 cells; type: cell-based, human; conditions: for IC50: EIA, 3 hr incubation, means of two experiments, standard deviation in parentheses
Description: as §1
The assay measured the ability of the compounds to inhibit TNF-α production in LPS stimulated THP-1 cells (Aikawa et al., Inflamm. Res. 51V 188–194 (2002)).
THP-1 cells are grown in RPMI-1640 Media (Gibco-BRL, Rockville, Md.) supplemented with 5% fetal bovine serum, penicillin (614 ηg/mL), streptomycin (10 μg/mL) and HEPES buffer, pH 7.2 at 37° C., 5% CO2. To each well of a flat bottomed 96 well culture plate 0.2 mL 1×10^6 THP-1 cells/mL were added. Each sample was then treated in duplicate with the compounds in DMSO at either 10 μM, 1 μM, 0.1 μM or 10 ηM and allowed to incubate for thirty minutes at 37° C., 5% CO2. Cell free supernatant fractions were collected from stimulated cultures incubated for 3 hr at 37° C., 5% CO2. Cultures were stimulated with LPS (Sigma-Aldrich, St. Louis, Mo.) at 1 μg/mL. The concentration of TNF-α in each sample was then measured using a competitive enzyme immunoassay (Neogen Corporation, Lansing, Mich.) according to the manufacturer's protocol. To make a standard curve, known TNF-α concentrations were plotted and fitted to a 4 parameter logistic curve. Unknown concentrations were then extrapolated from the standard curve.

CEM leukemia cells = assay: Inhibition of cell growth in CEM leukemia cells (trypan blue counting); type: cell-based; conditions: 48 hour, means of two experiments, standard deviation in parentheses
Description: Cells were treated at different concentrations ranging from 10 ηM to 5 μM concentrations over a 48 hour time period.
CEM cells (CCRF-CEM; ATCC No. CCL-119, American Type Culture Collection, Manassas, Va.) were grown in RPMI-1640 Media (Gibco-BRL, Rockville, Md.) supplemented with 10% Fetal Bovine Serum, penicillin (614 r1 g/mL), streptomycin (10 μg/mL) and HEPES buffer, pH 7.2 at 37° C., 5% CO2. DMSO was used as the vector for all drugs and added in the control experiments. Cell cultures were then treated with 10 μM, 1 μM, 0.1 μM or 10 ηM of the drug in duplicate and allowed to incubate at 37° C., 5% CO2. Cells were stained with 4% trypan blue solution in PBS, and counted under the microscope (Thomas Scientific, Fisher Scientific) in duplicate. This was repeated for Oh, 2 h, 6 h, 12 h, 24 h, and 48 h. The data points obtained were then plotted and a point-to-point curve was drawn to determine the effect of the drug on the cells.

CDK1 = assay: Inhibition of CDK1 (method of Meijer et al.); type: biochemical
From the text: The inhibitory activity of compound 3 was less pronounced.

GSK-3β = GSK-3β (Homo sapiens, UniProt P49841); assay: Inhibition of GSK-3β (method of Meijer et al.); type: biochemical
CK1δ (h) = molecular target: T1, CK1δ (h) (Homo sapiens, UniProt P48730); assay: Upstate Kinase Profiler in vitro kinase assay, CK1δ; type: biochemical; conditions: 10 μM ATP
T1 construct: purchased Upstate, UK (Kinase Profiler service)
Description: (§2) The potent inhibitory activity of the indoloazepines against checkpoint kinases Chk1 and Chk2 was determined. In vitro kinase Assay: Compound 2 was tested in vitro against the kinases indicated by Upstate, UK using a Kinase Profiler Assay according to the manufacturer's protocol. Briefly, in a final volume of 25 μl, the kinase was incubated with the desired buffer and the required polypeptide substrate, in presence of 10 mM magnesium acetate and γ-^33P-ATP (10 μM). After incubation for 40 minutes at room temperature, the reaction was stopped by the addition of 3% H3PO4 (5 μl). A 10 μl of the reaction was then spotted on a P30 filtermat and washed 3× in 75 mM H3PO4 and finally in methanol. Samples were then dried and signals counted on a scintillation counter. […] The results are shown in FIGS. 8 and 9 for CHK1 and CHK2.

CK2 (h) = molecular target: T2, CK2 (h) (Homo sapiens, UniProt P68400); assay: Upstate Kinase Profiler in vitro kinase assay, CK2; type: biochemical; conditions: 10 μM ATP
T2 construct: purchased Upstate, UK (Kinase Profiler service)
Description: as §2

MEK1 (h) = molecular target: T3, MEK1 (h) (Homo sapiens, UniProt Q02750); assay: Upstate Kinase Profiler in vitro kinase assay, MEK1; type: biochemical; conditions: 10 μM ATP
T3 construct: purchased Upstate, UK (Kinase Profiler service)
Description: as §2

PKCα (h) = molecular target: T4, PKCα (h) (Homo sapiens, UniProt P17252); assay: Upstate Kinase Profiler in vitro kinase assay, PKCα; type: biochemical; conditions: 10 μM ATP
T4 construct: purchased Upstate, UK (Kinase Profiler service)
Description: as §2

PKCβII (h) = molecular target: T5, PKCβII (h) (Homo sapiens, UniProt P05771); assay: Upstate Kinase Profiler in vitro kinase assay, PKCβII; type: biochemical; conditions: 10 μM ATP
T5 construct: purchased Upstate, UK (Kinase Profiler service)
Description: as §2

CHK1 = molecular target: T6, CHK1 (Homo sapiens, UniProt O14757); assay: Upstate Kinase Profiler in vitro kinase assay, CHK1; type: biochemical; conditions: 10 μM ATP
T6 sequence (O14757 1-476): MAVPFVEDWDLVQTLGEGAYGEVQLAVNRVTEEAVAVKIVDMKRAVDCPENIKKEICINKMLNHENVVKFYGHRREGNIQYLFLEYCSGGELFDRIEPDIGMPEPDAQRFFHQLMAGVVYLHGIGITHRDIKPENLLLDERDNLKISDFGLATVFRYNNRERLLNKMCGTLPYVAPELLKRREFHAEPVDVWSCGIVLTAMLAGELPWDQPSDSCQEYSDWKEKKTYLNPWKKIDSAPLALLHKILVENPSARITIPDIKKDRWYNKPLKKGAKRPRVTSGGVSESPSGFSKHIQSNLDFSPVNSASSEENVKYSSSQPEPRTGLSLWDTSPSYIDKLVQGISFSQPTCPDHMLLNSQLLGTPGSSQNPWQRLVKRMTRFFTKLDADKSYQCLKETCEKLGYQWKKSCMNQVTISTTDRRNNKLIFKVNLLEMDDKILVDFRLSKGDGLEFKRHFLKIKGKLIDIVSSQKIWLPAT
Description: as §2, with “In” for “The potent inhibitory activity of the indoloazepines against checkpoint kinases Chk1 and Chk2 was determined. In”

CHK2 = molecular target: T7, CHK2 (Homo sapiens, UniProt O96017); assay: Upstate Kinase Profiler in vitro kinase assay, CHK2; type: biochemical; conditions: 10 μM ATP
T7 construct: purchased Upstate, UK (Kinase Profiler service)
Description: as §2, with “In” for “The potent inhibitory activity of the indoloazepines against checkpoint kinases Chk1 and Chk2 was determined. In”

NF-κB-DNA binding = assay: EMSA for NF-κB-DNA binding in nuclear extracts of PMA/PHA-activated Jurkat cells; type: cell-based, human; conditions: for Inhibition of DNA-binding (relative to activated control) / Count per mm^2 NF-κB bands: EMSA; for Inhibition of DNA-binding (relative to activated control): PMA-activated Jurkat cells; for Count per mm^2 NF-κB bands: activated control 105.55
Description: Human Jurkat leukemia T-cells (clone E6-1; ATCC No. […] The Jurkat cells (1×10^6 cells/mL) are subsequently treated with various concentrations of the compounds in DMSO for 30 min. at 37° C. and 5% CO2 followed by PMA (50 ng/mL) and PHA ([…]) stimulation for an additional 30 minutes. The cells were harvested by centrifugation, washed in ice cold PBS and the nuclear extracts were prepared as previously described (Dignam et al., Nucl. Acids Res. 11: 1475-1489 (1983)). The protein concentration of the extracts was determined according to the Method of Bradford (1976) with BioRad reagents. Nuclear extracts were incubated for 20 minutes at room temperature with a double stranded Cy3 labeled NF-κB consensus oligonucleotide, [NT] ID NO:1). The binding mixture (25 μL) contained 10 mM HEPES-NaOH pH 7.9, 4 mM Tris-HCL, pH 7.9, 6.0 mM KCl, 1 mM EDTA, 1 mM DTT, 10% glycerol, 0.3 mg/mL bovine serum albumin, and 1 μg of poly (dI:dC). The binding mixtures (10 μg of nuclear extract protein) were incubated for 20 minutes at room temperature with 0.16 pmol of Cy3 labeled oligonucleotide. The mixture was loaded on a 4% polyacrylamide gel prepared in 1× TRIS borate/EDTA buffer and was electrophoresed at 200 V for 20 minutes. After electrophoresis the gel was analyzed using a phosphorimager (BIORAD FX PLUS, Biorad Laboratories, Inc., Hercules, Calif.) for detection of NF-κB-DNA binding.

T7 sequence (O96017 whole entry): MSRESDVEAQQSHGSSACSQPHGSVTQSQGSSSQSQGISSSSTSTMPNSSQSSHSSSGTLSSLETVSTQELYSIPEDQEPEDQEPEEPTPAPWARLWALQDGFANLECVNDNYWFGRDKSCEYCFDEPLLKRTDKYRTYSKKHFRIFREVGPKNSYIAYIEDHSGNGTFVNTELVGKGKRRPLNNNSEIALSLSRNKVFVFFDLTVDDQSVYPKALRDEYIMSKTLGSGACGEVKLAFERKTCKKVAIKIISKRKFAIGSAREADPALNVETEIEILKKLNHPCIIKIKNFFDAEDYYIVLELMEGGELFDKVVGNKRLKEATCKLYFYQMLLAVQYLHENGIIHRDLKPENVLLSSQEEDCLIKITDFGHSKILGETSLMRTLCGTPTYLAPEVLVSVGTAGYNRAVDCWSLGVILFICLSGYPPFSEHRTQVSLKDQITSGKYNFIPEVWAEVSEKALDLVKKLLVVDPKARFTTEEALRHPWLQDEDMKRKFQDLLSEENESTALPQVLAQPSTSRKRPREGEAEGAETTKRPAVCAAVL
GSK-3β, sequence (P49841 whole entry, species assumed): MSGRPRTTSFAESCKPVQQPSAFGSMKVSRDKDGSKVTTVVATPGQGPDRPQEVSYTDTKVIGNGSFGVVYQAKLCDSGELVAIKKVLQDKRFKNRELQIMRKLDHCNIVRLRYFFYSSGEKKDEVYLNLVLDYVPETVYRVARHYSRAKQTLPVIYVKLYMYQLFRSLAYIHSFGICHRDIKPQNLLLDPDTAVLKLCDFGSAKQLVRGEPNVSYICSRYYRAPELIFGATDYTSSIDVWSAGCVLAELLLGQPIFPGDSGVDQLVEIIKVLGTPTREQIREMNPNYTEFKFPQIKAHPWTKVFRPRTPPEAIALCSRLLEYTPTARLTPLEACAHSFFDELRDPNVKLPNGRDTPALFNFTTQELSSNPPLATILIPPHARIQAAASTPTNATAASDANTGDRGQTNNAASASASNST
T5 sequence (P05771 1-673 isoform P05771-2): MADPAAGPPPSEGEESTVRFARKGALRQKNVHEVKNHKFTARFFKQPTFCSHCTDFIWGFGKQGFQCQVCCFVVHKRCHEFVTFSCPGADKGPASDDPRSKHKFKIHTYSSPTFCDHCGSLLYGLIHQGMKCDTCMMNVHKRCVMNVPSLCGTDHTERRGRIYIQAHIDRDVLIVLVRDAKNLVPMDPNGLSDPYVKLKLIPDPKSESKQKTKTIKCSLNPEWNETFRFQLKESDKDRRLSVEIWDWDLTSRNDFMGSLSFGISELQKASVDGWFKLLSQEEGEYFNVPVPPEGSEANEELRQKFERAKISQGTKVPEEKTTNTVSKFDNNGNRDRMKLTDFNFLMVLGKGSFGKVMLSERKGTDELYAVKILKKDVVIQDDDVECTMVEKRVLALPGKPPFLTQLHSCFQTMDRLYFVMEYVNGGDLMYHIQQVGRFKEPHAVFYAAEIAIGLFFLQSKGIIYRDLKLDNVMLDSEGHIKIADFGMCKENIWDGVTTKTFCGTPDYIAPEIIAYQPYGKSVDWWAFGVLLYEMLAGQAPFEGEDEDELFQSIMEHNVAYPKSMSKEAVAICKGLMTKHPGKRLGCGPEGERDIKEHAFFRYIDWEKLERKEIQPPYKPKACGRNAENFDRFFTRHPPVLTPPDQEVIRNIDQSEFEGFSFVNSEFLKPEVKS
T2 sequence (P68400 whole entry): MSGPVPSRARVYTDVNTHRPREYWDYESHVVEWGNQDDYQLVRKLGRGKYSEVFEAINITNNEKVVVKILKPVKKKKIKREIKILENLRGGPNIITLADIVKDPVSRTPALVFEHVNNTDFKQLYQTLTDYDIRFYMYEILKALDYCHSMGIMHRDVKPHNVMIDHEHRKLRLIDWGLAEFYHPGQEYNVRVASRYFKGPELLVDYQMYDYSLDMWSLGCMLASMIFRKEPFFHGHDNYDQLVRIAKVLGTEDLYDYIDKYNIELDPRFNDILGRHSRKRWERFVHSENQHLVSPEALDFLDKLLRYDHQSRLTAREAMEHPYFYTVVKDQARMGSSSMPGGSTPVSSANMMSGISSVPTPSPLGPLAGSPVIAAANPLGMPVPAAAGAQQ
T2 sequence (P67870 whole entry partner): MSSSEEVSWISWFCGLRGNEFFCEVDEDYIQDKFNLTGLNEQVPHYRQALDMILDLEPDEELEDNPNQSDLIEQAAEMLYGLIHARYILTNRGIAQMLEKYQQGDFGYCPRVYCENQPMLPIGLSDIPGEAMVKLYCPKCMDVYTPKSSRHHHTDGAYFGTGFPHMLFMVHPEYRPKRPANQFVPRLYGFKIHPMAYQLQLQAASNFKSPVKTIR
T3 sequence (Q02750 whole entry): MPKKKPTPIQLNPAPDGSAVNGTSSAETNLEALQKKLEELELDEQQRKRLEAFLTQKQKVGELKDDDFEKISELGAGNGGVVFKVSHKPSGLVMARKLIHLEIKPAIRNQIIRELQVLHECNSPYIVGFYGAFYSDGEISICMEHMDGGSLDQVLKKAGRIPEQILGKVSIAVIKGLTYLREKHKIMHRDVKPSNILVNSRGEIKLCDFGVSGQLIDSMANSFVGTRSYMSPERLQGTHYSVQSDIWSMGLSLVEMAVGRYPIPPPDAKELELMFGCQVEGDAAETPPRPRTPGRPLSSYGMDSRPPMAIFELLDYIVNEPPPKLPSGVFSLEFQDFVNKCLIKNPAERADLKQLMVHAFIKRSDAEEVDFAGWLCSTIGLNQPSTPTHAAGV
T1 sequence (P48730 whole entry): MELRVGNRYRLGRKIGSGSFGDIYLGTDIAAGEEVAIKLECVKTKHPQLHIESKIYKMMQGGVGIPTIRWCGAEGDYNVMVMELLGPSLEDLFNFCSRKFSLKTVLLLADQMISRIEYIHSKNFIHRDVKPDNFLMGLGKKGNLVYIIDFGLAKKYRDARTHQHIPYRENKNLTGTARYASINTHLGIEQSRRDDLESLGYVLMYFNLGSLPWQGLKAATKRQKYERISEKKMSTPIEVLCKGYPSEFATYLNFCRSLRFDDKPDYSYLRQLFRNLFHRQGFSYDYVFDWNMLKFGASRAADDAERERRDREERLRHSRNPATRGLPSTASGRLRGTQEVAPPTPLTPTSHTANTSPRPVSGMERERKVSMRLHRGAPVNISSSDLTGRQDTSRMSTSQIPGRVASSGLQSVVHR

- IC50 (IL-2 production; Homo sapiens, Jurkat, 24 h): 3.5 µM
- IC50 (IL-2 production; 24 hr): 3.55 µM
- IC50 (TNF-α production): 8.16 µM
- IC50 (TNF-α production; Homo sapiens, THP-1, 3 h): 8.2 µM
- GI50 (CEM leukemia cells): 1.73 µM
- IC50 (CDK1): 0.4 µM
- IC50 (GSK-3β): 0.15 µM
- IC50 (CK1δ (h)): 1.35 µM
- IC50 (CK2 (h)): > 10 µM
- IC50 (MEK1 (h)): 0.089 µM
- IC50 (PKCα (h)): 2.54 µM
- IC50 (PKCβII (h)): 3.38 µM
- IC50 (CHK1): 0.237 µM
- IC50 (CHK2): 0.008 µM
SMILES: NC1=N/C(=C2/CCNC(=O)c3[nH]c4ccccc4c32)C(=O)N1 [Compound 2, 5-(2-amino-5-oxo-1,5-dihydro-imidazol-4-ylidene)-3,4,5,10-tetrahydro-2H-azepino[3,4-b]indol-1-one]

- IC50 (IL-2 production; Homo sapiens, 24 hr): > 10 µM
- IC50 (TNF-α production; Homo sapiens): > 10 µM
- GI50 (CEM leukemia cells): 14.3 µM
- IC50 (CDK1): > 10 µM
- IC50 (GSK-3β): > 10 µM
- melting point: > 260 °C
SMILES: Cn1c2c(c3ccccc31)C(=C1N=C(N)NC1=O)CCNC2=O [Compound 3, 5-(2-amino-5-oxo-1,5-dihydro-imidazol-4-ylidene)-10-methyl-3,4,5,10-tetrahydro-2H-azepino[3,4-b]indol-1-one]
- Inhibition of IL-2 production (in words) (IL-2 production; Jurkat cells, measured up to 10 μM): no significant inhibition of IL-2 production
- Inhibition of DNA-binding (relative to activated control) (NF-κB-DNA binding; 1.0 μM): 0%
- Count per mm^2 NF-κB bands (NF-κB-DNA binding; 1.0 μM): 118.82 Count per mm^2
- Inhibition of DNA-binding (relative to activated control) (NF-κB-DNA binding; 5.0 μM): 0%
- Count per mm^2 NF-κB bands (NF-κB-DNA binding; 5.0 μM): 121.76 Count per mm^2
- Inhibition of NF-κB-DNA binding (in words) (NF-κB-DNA binding; measured up to concentrations of 5 μM): did not appear to substantially inhibit DNA binding
- Inhibition of TNF-α production (in words) (TNF-α production; tested up to 10 μM): did not have any significant activity
